Each structure is given as a SMILES string.

This data set is described as follows: Human HepG2 cell viability assay in 384 well format. The data set is classed as toxicity, cell-based. Further details: dose 125 nL, time 70.5 hour; concentration not given beside the values. The following applies: HepG2 cells, read-out: Inhibition.
Take `NC(=O)Nc1cccc(F)c1C(=O)NC1CCCC1`: the cytotoxicity at 70.5 h is -3.68%.

Turning to `CC(C)(C)c1ccc2c(c1)CCN2C(=O)c1[nH]c(=O)[nH]c(=O)c1N`, the cytotoxicity at 70.5 h is -6.44%. Under `CCOCc1ccc(NCc2cnc(N3CCN(C)CC3)nc2)cc1` stands -3.75%. The figure for `CCOc1ccc(NCc2cnc(N3CCN(C)CC3)nc2)cn1` is -1.43%; for `Cn1cc(S(=O)(=O)N2CCCC(Cn3cncn3)C2)cn1` (stereo not drawn) it is -2.09%; for `Cc1ccc(F)cc1C(=O)NCc1ccc(C(=O)O)o1` it is 7.02%. Under `CCOc1ccc(NC(=O)c2cccc(OC)c2OC)cc1` stands -1.48%; under `CC(OCC1CC1)C(=O)NCc1cccc(CN2CCN(C)CC2)c1` (stereo not drawn), 5.66%. On to `O=C(COC1CCCCC1)Nc1ccn(CCc2ccncc2)n1`, for which the cytotoxicity at 70.5 h is -7.83%. Regarding `CCN(Cc1ccc(CN(C)C)cc1)C(=O)c1ccncc1O`, the cytotoxicity at 70.5 h is -11.2%. The figure for `CC1CCCCN1C(=O)Cn1cnc(C#N)n1` (stereo not drawn) is -6.77%; for `COc1cc(F)ccc1NC(=O)NCCNC(=O)OC(C)(C)C` it is -14%; for `O=C(NCCCn1cccn1)C1COCC(=O)N1Cc1ccccc1` (stereo not drawn) it is -0.531%. As for `CN(Cc1ccc2c(c1)OCO2)Cc1cscn1`, the cytotoxicity at 70.5 h turned out to be 10.1%.

As to `COCc1c(Br)cccc1NC(=O)CC(F)(F)F`, the cytotoxicity at 70.5 h is -13.2%. Turning to `CN(Cc1cscn1)Cc1cc2c(cc1Br)OCO2`, the cytotoxicity at 70.5 h is -4.04%.

As for `Cc1cc(C)n(-c2cccc(NC(=O)N3CCC[C@@H]3CO)c2)n1`, the cytotoxicity at 70.5 h is -16%.

Turning to `Cc1ccc(C)c(CC(=O)NC2CCCS(=O)(=O)C2)c1` (stereo not drawn), the cytotoxicity at 70.5 h is 6.95%.

For the compound `Cc1ccc(C2CSCCN2CCS(C)(=O)=O)cc1` (stereo not drawn), the cytotoxicity at 70.5 h is -12.2%. Consider `Cc1noc(C)c1C(C)NC(=O)N1CCC(NC(=O)c2ccsc2)CC1` (stereo not drawn), for which the cytotoxicity at 70.5 h was -6.79%. The figure for `C[C@@H]1CN(Cc2ccccc2F)CC(C(N)=O)O1` (stereo partly drawn) is -14.1%; for `Cc1oc(CNC(=O)Cc2ccc3ccccc3c2)cc1C(=O)O` it is 5.89%. Regarding `CC(c1nc(C2CC2)no1)N1CCN(CCc2ccncc2)CC1` (stereo not drawn), the cytotoxicity at 70.5 h is -12.6%. The figure for `CC(C)c1noc(C(C)N2CCN(CCc3ccncc3)CC2)n1` (stereo not drawn) is -16.3%. For the compound `COC(=O)CCN(CC1CCCO1)C(=O)CCc1ccc(OC)cc1` (stereo not drawn), the cytotoxicity at 70.5 h is -7.89%. Under `CCOc1ccc(CC(=O)N(CCC(=O)OC)CC2CCCO2)cc1` (stereo not drawn) stands -14.3%; under `C[C@@H]1CN(Cc2ccc(-c3ccncc3)cc2F)CC(C(N)=O)O1` (stereo partly drawn), -0.906%; under `CC(O)(CNc1ccc(Cl)c(C#N)n1)c1ccccc1` (stereo not drawn), 13.8%. Under `CCOc1ncccc1CNS(=O)(=O)c1ccc2c(c1)CCC2` stands 4.98%. The figure for `CCOc1ncccc1CNS(=O)(=O)c1ccc2c(c1)CCO2` is -2.87%; for `CCOc1ncccc1CNS(=O)(=O)c1ccc2c(c1)CCCC(=O)N2` it is -4.49%; for `CCn1ccnc1CN1CCN(C(C)C(=O)NCC(F)(F)F)CC1` (stereo not drawn) it is 10%.

In the case of `CN1C(=O)CCc2cc(NS(=O)(=O)Cc3cccc(F)c3)ccc21`, the cytotoxicity at 70.5 h was -8.13%.

`CCN1CC(COC(=O)c2ccc(Br)cc2F)CC1=O` (stereo not drawn): the cytotoxicity at 70.5 h was -6.68%.

Consider `CC(Nc1ccc2c(c1)CCC2)c1nc(C2CC2)no1` (stereo not drawn), for which the cytotoxicity at 70.5 h was -3.74%. The figure for `CCS(=O)(=O)CCN1CCN(C2CCC(C(C)C)CC2)CC1` (stereo not drawn) is 11.5%. The figure for `O=C(NCC1(c2ccc(F)cc2)CCCC1)N1CCOC(CO)C1` (stereo not drawn) is 2.92%; for `CC(C)C1CCC(N2CCN(CCS(C)(=O)=O)CC2)CC1` (stereo not drawn) it is -4.3%.

As to `CC(C)C1CCC(N2CCN(CCCS(C)(=O)=O)CC2)CC1` (stereo not drawn), the cytotoxicity at 70.5 h was -3.77%. Turning to `CS(=O)(=O)CCNC(=O)N1CC2(CCCC2)c2ccccc21`, the cytotoxicity at 70.5 h turned out to be 0.304%. Under `O=C1CC2(CCSC2)C(=O)N1Cc1coc(-c2cccc(F)c2)n1` (stereo not drawn) stands -2.41%; under `O=C1CC2(CCSC2)C(=O)N1Cc1coc(-c2ccccc2)n1` (stereo not drawn), 2.52%; under `Cc1ocnc1C(=O)Nc1ccc(-c2nnc(N(C)C)o2)cc1`, -3.15%.

With `NC(=O)c1ccc(NC(=O)c2ccncc2Cl)cn1`, the cytotoxicity at 70.5 h was -4.51%. Under `CCc1cnccc1C(=O)Nc1ccc(C(N)=O)nc1` stands -4.18%. In the case of `Cc1cc(Br)ccc1CNC(=O)C1(O)CCSCC1`, the cytotoxicity at 70.5 h was determined as 9.16%.

Regarding `Cc1csc(N(C)C(=O)C2CC(=O)N(c3ccccc3Cl)C2)n1` (stereo not drawn), the cytotoxicity at 70.5 h is 4.48%. The figure for `CN(C(=O)C1CC(=O)N(CCc2ccccc2)C1)c1nccs1` (stereo not drawn) is 16.6%; for `CC(Cn1cccn1)NC(=O)C1=Cc2ccccc2OC1` (stereo not drawn) it is -4.64%. On to `COC(=O)C(CNC(=O)Nc1nncs1)Cc1ccc(F)cc1` (stereo not drawn), for which the cytotoxicity at 70.5 h is -4.56%. Under `COc1ccnc(N2CCc3ccc(OC(F)F)cc3C2)n1` stands -2.84%; under `COc1ccc(Oc2ncccc2NC(=O)N2CCOC(C)C2)cc1` (stereo not drawn), -5.19%; under `CCc1ccc(O)c(C(=O)N2CCN(CC(=O)N(CC)CC)CC2)c1`, 1.25%. Under `CNC(=O)c1sccc1S(=O)(=O)Nc1ccc(C)cc1` stands -1.86%; under `N#CCCN(Cc1cccnc1)C(=O)c1ccn(-c2ccccc2)n1`, 1.01%; under `CCC(=O)Nc1ccc(C(C)Nc2nc3c(cnn3C)c(=O)[nH]2)cc1` (stereo not drawn), -5.84%.

For `O=C(CN(Cc1cccs1)c1ccc(F)cc1)NC1CCOCC1`, the cytotoxicity at 70.5 h is -1.98%. Consider `O=C(c1ccc(Cl)cn1)N1CCC(COCc2ccccc2)C1` (stereo not drawn), for which the cytotoxicity at 70.5 h worked out at 15.8%. As for `CC(C)(C)C(=O)N1CCC(COCc2ccccc2)C1` (stereo not drawn), the cytotoxicity at 70.5 h was -3.49%. The figure for `Cc1cc(CSCc2cc(C)on2)on1` is 12.2%; for `Cc1cc(CSc2ccccn2)on1` it is -3.89%. Under `O=C(c1c(F)cccc1Br)N1CCCOCC1` stands 3.06%. Under `CC(C)(C)c1nc2cc(NC(=O)Cn3ccc(=O)[nH]c3=O)ccc2o1` stands -13.2%; under `CCC(CC)NC(=O)c1cccnc1-n1cccn1`, 18%. `CN(C)c1ccc(NC(=O)C2CN(Cc3ccccc3)CCO2)cn1` (stereo not drawn): the cytotoxicity at 70.5 h was -3.21%. Under `O=C(O)c1ccn(-c2ccccc2NS(=O)(=O)c2cccc(Cl)c2F)n1` stands -7.81%; under `CCCC(NC(=O)c1cscc1C)c1nnn[nH]1` (stereo not drawn), -2.41%. Under `CC(CNC(=O)N1CCN(Cc2ccon2)CC1)N(C)C1CC1` (stereo not drawn) stands -1.74%; under `COCCN1CCCC1c1cccc2c1OCCO2` (stereo not drawn), 7.8%; under `CC(CC(=O)NCCCn1cccn1)c1cccnc1` (stereo not drawn), -6.56%. The figure for `Cc1cccc(NC(=O)[C@@H]2CCCN2Cc2cnc3ccccn23)n1` is 1.07%. With `O=C(NCCCn1cccn1)N1CCCC1c1cccs1` (stereo not drawn), the cytotoxicity at 70.5 h was -7.95%. Under `Cc1cc(C)n(CC2CCCCN2CC(=O)Nc2ccncc2)n1` (stereo not drawn) stands -0.378%; under `Cc1cc(C)n(CC2CCCN2CC(=O)Nc2nnc(C)s2)n1` (stereo not drawn), 0.949%; under `CCC(Nc1nc(C(F)(F)F)nc2ccccc12)C(=O)O` (stereo not drawn), 2.5%.

For the compound `Cc1ccc(S(=O)(=O)NCCNC(=O)c2ccoc2)cc1C`, the cytotoxicity at 70.5 h is -7.77%. The figure for `CC(C)(C)OC(=O)NC(C)(C)c1noc(CSc2ccccn2)n1` is -1.21%. Under `CCCc1ccc(S(=O)(=O)NCCNC(=O)c2ccoc2)cc1` stands -6.96%; under `O=C(NCCNS(=O)(=O)c1ccc(C(F)(F)F)cc1)c1ccoc1`, -6.84%; under `CCS(=O)(=O)c1ccc(N2CCC(NC(=O)C(C)SC)CC2)cc1` (stereo not drawn), -6.83%.

As for `Cn1c(C(=O)N2CCC(CC(N)=O)CC2)c(Cl)c2ccccc21`, the cytotoxicity at 70.5 h is 28.2%. Under `CC(=O)N1CCN(C(=O)c2c(Cl)c3ccccc3n2C)CC1` stands -7.65%; under `COc1cccc(S(=O)(=O)CCN2CCN(CC(F)F)CC2)c1`, 1.26%; under `Cc1ccc(NC(=O)Cc2c(C)nc3c(c2C)c(=O)[nH]n3C)cc1F`, -4.3%.

Consider `c1nc(N2CCCCC2Cn2cncn2)c2sccc2n1` (stereo not drawn), for which the cytotoxicity at 70.5 h is -5.69%. Under `Cc1cnn(CC2CCCN2c2ncnc3sccc23)c1` (stereo not drawn) stands 1.15%.

Regarding `O=C(OCc1ccccc1)c1cccc(NC(=O)C2COCCO2)c1` (stereo not drawn), the cytotoxicity at 70.5 h was determined as 1.04%.

For `CC(C)NC(=O)NCCCc1cccc(F)c1`, the cytotoxicity at 70.5 h stood at 0.142%. In the case of `Cc1nn(CCO)c(C)c1CNC1CCCCc2ccccc21` (stereo not drawn), the cytotoxicity at 70.5 h came to 3.84%.

As for `CCc1nc(NS(=O)(=O)c2cc(C)ccc2Br)no1`, the cytotoxicity at 70.5 h came to 1.48%.

On to `CCOC(=O)N1CCN(C(=O)C2CC(=O)N(c3ccccc3Br)C2)CC1` (stereo not drawn), for which the cytotoxicity at 70.5 h was -2.99%. For the compound `Cc1nc(C)n(CC2CCCN2CC(=O)Nc2nncs2)n1` (stereo not drawn), the cytotoxicity at 70.5 h was -0.801%. Under `Cc1ccc(S(=O)(=O)NCCc2cccnc2)cc1C` stands -3.85%; under `COc1ccc(S(=O)(=O)NCCC(=O)NCc2ccoc2)cc1OC`, -11.3%. Under `O=C(Nc1nncs1)NC1CCCc2c1cnn2CCO` (stereo not drawn) stands 4.56%; under `CCC(CC)C(=O)Nc1ccc2oc(=O)n(CCN(C)C)c2c1`, 12.5%; under `CCC(C)C(=O)Nc1ccc2oc(=O)n(CCN(C)C)c2c1` (stereo not drawn), -1.79%.

For `O=C(NC1CCCCC1)NC1CCCc2c1cnn2CCO` (stereo not drawn), the cytotoxicity at 70.5 h is -5.64%.

On to `CN(C)CCn1c(=O)oc2ccc(NC(=O)N3CCCCCC3)cc21`, for which the cytotoxicity at 70.5 h is 35.5%.

On to `CCC(O)CN1CCN(C(=O)c2cnn(-c3ccccc3F)c2)CC1` (stereo not drawn), for which the cytotoxicity at 70.5 h came out at 2.94%. `CC/C=C(/C)C(=O)NCCc1csc(N2CCCC2)n1`: the cytotoxicity at 70.5 h is -0.998%. Regarding `CC(C)(C)SCC(=O)NCCc1csc(N2CCCC2)n1`, the cytotoxicity at 70.5 h is -6.06%. The figure for `Cc1ccc2c(c1)CCC2NCc1c(C)nn(CCO)c1C` (stereo not drawn) is -6.83%.
